According to US4663438A, “Novel nucleic acid-containing glycoprotein” (Kureha Kagaku Kogyo Kabushiki Kaisha, priority 1981, dated 1987):

These compounds were tested on sarcoma-180 cells (assay: Inhibition by monosaccharide of agglutination of sarcoma-180 cells due to the present substance). Conditions: present substance 3 mg with monosaccharide 1.5 mg, 30 min, 37° C.; blank test 18.
Assay type: cell-based, mouse
Protocol: (ii) Test on the inhibition by monosaccharide of agglutination of sarcoma-180 cells due to the present substance
The same specimen of sarcoma-180 cells suspending in 0.5 ml of Hanks' solution at a rate of 1×10^6 cells/ml as in Test (i) and each 0.5 ml of the physiological saline solution containing 3 mg of the present substance and 1.5 mg of the respective monosaccharides set forth below, which was incubated for 30 min. at 37° C., then discarding the supernatant medium and washing the residue with Hanks' solution, the remaining residue was examined under a microscope to count the number of agglutinated lumps of the cells.
`O=C[C@H](O)[C@@H](O)[C@@H](O)[C@H](O)CO` [D-galactose] was tested, and the “Number of agglutinated lumps” value was 118. With `C[C@H](O)[C@@H](O)[C@@H](O)[C@H](O)C=O` [L-fucose] the “Number of agglutinated lumps” value was 27. With `C[C@H](O)[C@H](O)[C@@H](O)[C@@H](O)C=O` [L-rhamnose] the “Number of agglutinated lumps” value was 25. In the case of `CC(=O)N[C@@H]1[C@@H](O)[C@H](O)[C@@H](CO)O[C@H]1O` [N--acetylglucosamine], the “Number of agglutinated lumps” value is reported as 85. With `CO[C@H]1O[C@H](CO)[C@@H](O)[C@H](O)[C@H]1O` [methyl α-glucoside] the “Number of agglutinated lumps” value was 115. In the case of `COC1OC(CO)C(O)C(O)C1O` (stereo not drawn) [methyl α-mannoside], the “Number of agglutinated lumps” value is reported as 35.
